Measurements as given in patent US6906205B2, “Spiro and dispiro 1,2,4-trioxolane antimalarials” (Medicines for Malaria Venture MMV, priority 2002, dated 2005).
Values after ≈ are worked out from the molar mass of the structure shown.

Key:
[1] = system: ANKA strain of P. berghei; assay: single dose STI in vivo screen in infected mice; design: species or system Plasmodium berghei; conditions: for Activity (%) po / Activity (%) sc / Activity (%) SSVpo / Activity (%) 10 mg/kg SSV po / Activity (%) 3 mg/kg SSV po: percent reduction in parasitemia day 3 post-infection; for Activity (%) po / Survival (days) po: single 10 mg/kg po in 3% ethanol and 7% Tween 80; for Activity (%) po / Activity (%) sc / Activity (%) SSVpo: mice; for Activity (%) sc / Survival (days) sc: single 10 mg/kg sc in 3% ethanol and 7% Tween 80; for Activity (%) SSVpo: single po dose in standard suspending vehicle (SSV); for Survival (days) po / Survival (days) sc / Survival (days) SSVpo: untreated control 5.6 ± 0.3; for Survival (days) SSVpo: single po dose in SSV; for Activity (%) 10 mg/kg SSV po / Survival (days) 10 mg/kg SSV po: single 10 mg/kg po in SSV; for Activity (%) 3 mg/kg SSV po: single 3 mg/kg po in SSV
In short: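 Groups of 3-5 Moro SPF or NMRI mice infected with the ANKA strain of P. berghei received a single dose of trioxolane on day one post-infection. The compound was given in 3% ethanol and 7% Tween 80 or in SSV (0.5% w/v CMC, 0.5% v/v benzyl alcohol, 0.4% v/v Tween 80, 0.9% w/v sodium chloride in water). Antimalarial activity was scored as percent reduction in parasitemia on day three and as survival time versus untreated controls. Survival to day 30 counted as cure.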

[2] = system: P. falciparum K1 strain (Thailand resistant to chloroquine); assay: semiautomated microdilution assay, [3H]-hypoxanthine incorporation, K1 strain; type: cell-based, Plasmodium falciparum; conditions: K1 strain, 72 h incubation
In short: (§1)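 IC50 values come from logit regression of semiautomated microdilution data obtained on intraerythrocytic parasites drawn from asynchronous cultures.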

[3] = system: P. falciparum NF54 strain (sensitive to standard antimalarials); assay: semiautomated microdilution assay, [3H]-hypoxanthine incorporation, NF54 strain; type: cell-based, Plasmodium falciparum; conditions: NF54 strain, 72 h incubation
In short: as §1

Question: Which results are given for `NC[C@H]1CC[C@@]2(CC1)OOC1(O2)C2CC3CC(C2)CC1C3` (stereo partly drawn) [OZ269]?
Answer: Activity (%) po [1]: 98%; Activity (%) sc [1]: 99.92%; Activity (%) SSVpo [1]: 86%; Survival (days) po [1]: 10.7 days; Survival (days) sc [1]: 9.0 days; Survival (days) SSVpo [1]: 11.3 days; IC50 (ng/ml) K1 [2]: 0.32 ng/mL (≈ 1.09 nM); IC50 (ng/ml) NF54 [3]: 0.61 ng/mL (≈ 2.08 nM)

Question: `O=C(NC[C@H]1CC[C@]2(CC1)OOC1(O2)C2CC3CC(C2)CC1C3)c1cccc[n+]1[O-]` (stereo partly drawn) [OZ270] was tested. Which “Activity (%) po” value [1] did it give?
Answer: 99.17%

Question: And the “Activity (%) sc” value [1]?
Answer: 99.81%

Question: And the “Activity (%) SSVpo” value [1]?
Answer: 99.47%

Question: And the “Survival (days) po” value [1]?
Answer: 13.7 days

Question: And the “Survival (days) sc” value [1]?
Answer: 11.3 days

Question: And the “Survival (days) SSVpo” value [1]?
Answer: 12.3 days

Question: What about the “IC50 (ng/ml) K1” value [2] of the same compound?
Answer: 0.85 ng/mL (≈ 2.05 nM)

Question: What about the “IC50 (ng/ml) NF54” value [3] of the same compound?
Answer: 1.3 ng/mL (≈ 3.14 nM)

Question: What does the source list for `FC1(c2ccccc2)CCC2(CC1)OOC1(O2)C2CC3CC(C2)CC1C3` (stereo not drawn) [OZ274]?
Answer: Activity (%) 10 mg/kg SSV po [1]: 11/ND %; Survival (days) 10 mg/kg SSV po [1]: 7.0/ND days; IC50 (ng/ml) K1 [2]: 5.1 ng/mL (≈ 14.2 nM); IC50 (ng/ml) NF54 [3]: 5.7 ng/mL (≈ 15.9 nM)

Question: For `OC1(Cc2ccccn2)CCC2(CC1)OOC1(O2)C2CC3CC(C2)CC1C3` (stereo not drawn) [OZ275], which “Activity (%) 10 mg/kg SSV po” value [1] is on record?
Answer: 68/ND %

Question: And the “Survival (days) 10 mg/kg SSV po” value [1]?
Answer: 7.3/ND days

Question: What about the “IC50 (ng/ml) K1” value [2] of the same compound?
Answer: 0.66 ng/mL (≈ 1.78 nM)

Question: And the “IC50 (ng/ml) NF54” value [3]?
Answer: 0.74 ng/mL (≈ 1.99 nM)

Question: `O=C(C[C@H]1CC[C@]2(CC1)OO[C@]1(O2)C2CC3CC(C2)CC1C3)Nc1nnn[nH]1` [OZ278] was tested. Which “Activity (%) 10 mg/kg SSV po” value [1] did it give?
Answer: 56/ND %

Question: And the “Survival (days) 10 mg/kg SSV po” value [1]?
Answer: 7.3/ND days

Question: And the “IC50 (ng/ml) K1” value [2]?
Answer: 23 ng/mL (≈ 59.1 nM)

Question: What about the “IC50 (ng/ml) NF54” value [3] of the same compound?
Answer: 39 ng/mL (≈ 100 nM)

Question: Which “Activity (%) 3 mg/kg SSV po” value [1] does the source give for `CC(C)(N)CNC[C@H]1CC[C@]2(CC1)OOC1(O2)C2CC3CC(C2)CC1C3` (stereo partly drawn) [OZ287] here?
Answer: 68%

Question: What about the “Activity (%) 10 mg/kg SSV po” value [1] of the same compound?
Answer: 95%

Question: What about the “Survival (days) 10 mg/kg SSV po” value [1] of the same compound?
Answer: 8.3 days

Question: What about the “IC50 (ng/ml) K1” value [2] of the same compound?
Answer: 0.49 ng/mL (≈ 1.34 nM)

Question: What about the “IC50 (ng/ml) NF54” value [3] of the same compound?
Answer: 0.83 ng/mL (≈ 2.28 nM)

Question: With `c1ccc(CNC[C@H]2CC[C@]3(CC2)OO[C@]2(O3)C3CC4CC(C3)CC2C4)nc1` [OZ292] as the compound, how does the “Activity (%) 3 mg/kg SSV po” value [1] read?
Answer: 46%

Question: And the “Activity (%) 10 mg/kg SSV po” value [1]?
Answer: 74%

Question: What about the “Survival (days) 10 mg/kg SSV po” value [1] of the same compound?
Answer: 7.0 days

Question: And the “IC50 (ng/ml) K1” value [2]?
Answer: 0.19 ng/mL (≈ 0.494 nM)

Question: What about the “IC50 (ng/ml) NF54” value [3] of the same compound?
Answer: 0.26 ng/mL (≈ 0.676 nM)

Question: Which “Activity (%) 3 mg/kg SSV po” value [1] does the source give for `O=CN1CCN(C(=O)C[C@H]2CC[C@]3(CC2)OO[C@]2(O3)C3CC4CC(C3)CC2C4)CC1` [OZ294] here?
Answer: 70%

Question: What about the “Survival (days) 10 mg/kg SSV po” value [1] of the same compound?
Answer: 8.6 days

Question: What about the “IC50 (ng/ml) K1” value [2] of the same compound?
Answer: 0.39 ng/mL (≈ 0.932 nM)

Question: And the “IC50 (ng/ml) NF54” value [3]?
Answer: 0.63 ng/mL (≈ 1.51 nM)

Question: Which “Activity (%) 3 mg/kg SSV po” value [1] does the source give for `O=C(C[C@H]1CC[C@]2(CC1)OO[C@]1(O2)C2CC3CC(C2)CC1C3)NCc1ccccn1` [OZ295] here?
Answer: 35%

Question: What about the “Activity (%) 10 mg/kg SSV po” value [1] of the same compound?
Answer: 47%

Question: And the “Survival (days) 10 mg/kg SSV po” value [1]?
Answer: 7.0 days

Question: And the “IC50 (ng/ml) K1” value [2]?
Answer: 0.44 ng/mL (≈ 1.07 nM)

Question: What about the “IC50 (ng/ml) NF54” value [3] of the same compound?
Answer: 0.75 ng/mL (≈ 1.82 nM)

Question: What does the source list for `O=C(C[C@H]1CC[C@]2(CC1)OO[C@]1(O2)C2CC3CC(C2)CC1C3)N1CCC(O)CC1` [OZ297]?
Answer: Activity (%) 3 mg/kg SSV po [1]: 83%; Survival (days) 10 mg/kg SSV po [1]: 9.8 days; IC50 (ng/ml) K1 [2]: 0.49 ng/mL (≈ 1.21 nM); IC50 (ng/ml) NF54 [3]: 0.76 ng/mL (≈ 1.87 nM)

Question: `O=S(=O)(C[C@H]1CC[C@]2(CC1)OO[C@]1(O2)C2CC3CC(C2)CC1C3)c1ncccn1` [OZ299] was tested. Which “Activity (%) 3 mg/kg SSV po” value [1] did it give?
Answer: 0%

Question: What about the “Activity (%) 10 mg/kg SSV po” value [1] of the same compound?
Answer: 36%

Question: What about the “Survival (days) 10 mg/kg SSV po” value [1] of the same compound?
Answer: 6.6 days

Question: What about the “IC50 (ng/ml) K1” value [2] of the same compound?
Answer: 6.8 ng/mL (≈ 16.2 nM)

Question: And the “IC50 (ng/ml) NF54” value [3]?
Answer: 6.3 ng/mL (≈ 15 nM)

Question: For `O=C(O)CCC(=O)NC[C@H]1CC[C@]2(CC1)OO[C@]1(O2)C2CC3CC(C2)CC1C3` [OZ300], which “Activity (%) 3 mg/kg SSV po” value [1] is on record?
Answer: 0%

Question: What about the “Activity (%) 10 mg/kg SSV po” value [1] of the same compound?
Answer: 6%

Question: What about the “Survival (days) 10 mg/kg SSV po” value [1] of the same compound?
Answer: 6.8 days

Question: What about the “IC50 (ng/ml) K1” value [2] of the same compound?
Answer: 71 ng/mL (≈ 180 nM)

Question: What about the “IC50 (ng/ml) NF54” value [3] of the same compound?
Answer: 97 ng/mL (≈ 247 nM)

Question: With `NC(=O)CNC(=O)C[C@H]1CC[C@]2(CC1)OO[C@]1(O2)C2CC3CC(C2)CC1C3` [OZ306] as the compound, how does the “Activity (%) 3 mg/kg SSV po” value [1] read?
Answer: 87%

Question: And the “Activity (%) 10 mg/kg SSV po” value [1]?
Answer: 99.58%

Question: What about the “Survival (days) 10 mg/kg SSV po” value [1] of the same compound?
Answer: 9.2 days

Question: And the “IC50 (ng/ml) K1” value [2]?
Answer: 3.9 ng/mL (≈ 10.3 nM)

Question: And the “IC50 (ng/ml) NF54” value [3]?
Answer: 3.6 ng/mL (≈ 9.51 nM)
